# Measurements reported in patent US20060258735A1, “1,3-Bis-(substituted-phenyl)-2-propen-1-ones and their use to treat VCAM-1 mediated disorders” (priority 2000, published 2006).
# Key:
# eosinophil recruitment = assay: Mouse peritonitis model (ovalbumin, eosinophil recruitment); format: in vivo; conditions: 50 mg/kg/dose subcutaneous at -24, -2, +2 and +6 hrs around ovalbumin challenge; Balb/C mice; 48 hrs post-challenge; FIG. 2
# Procedure: (§1) Balb/C mice (n=10) were sensitized to ovalbumin on days 0 and 7 with a subcutaneous injection of ovalbumin absorbed in aluminum hydroxide. They were then challenged with an intraperitoneal injection of ovalbumin and sacrificed 48 hrs post-challenge. Peritoneal fluid was then collected and spun down onto slides. Slides were stained with DiffQuik and a differential performed. The test compound was administered by subcutaneously injection −24, −2, +2 and +6 hrs around the time of ovalbumin challenge. This is a model of allergic inflammation as eosinophils are the major leukocyte recruited into the peritoneum.
# as §1, with “compound wase” for “compound was”
# paw edema = assay: Paw edema model (delayed type hypersensitivity, metBSA); format: in vivo; conditions: 50 mg/kg/dose intraperitoneal at -24, -2 and +6 hrs around metBSA challenge; Balb/C mice; 24 hours after challenge; FIG. 3
# Procedure: Balb/C mice (n=5) were sensitized intradermally on day 0 with methylated BSA (metBSA). They were then challenged with metBSA on day 7 in the right hind paw. The animals were sacrificed 24 hours later and the left and right hind paws weighed. The left hindpaw weight is subtracted from the right hind paw to give the paw weight increase. The test compound was administered by intraperitoneal injection −24, −2 and +6 hrs around the time of metBSA challenge.
structure (smiles),measurement,setting,value
"COc1cc(OC)c(-c2cc3ccccc3s2)cc1/C=C/C(=O)c1cc(OC)c(OC)c(OC)c1 [3-[5-(benzo[b]thien-2-yl)-2,4-dimethoxyphenyl]-1-(3,4,5-trimethoxyphenyl)-2-propen-1-one]",inhibition of eosinophil recruitment (percent eosinophils in the peritoneal fluid),eosinophil recruitment,inhibition of eosinophil recruitment
same,inhibition of paw edema (paw weight increase),paw edema,inhibition of paw edema
